{
  "source": "patent US20160272937A1",
  "about": "“METHODS OF GENERATING INTERMEDIATE MESODERM CELLS FROM HUMAN PLURIPOTENT STEM CELLS” (THE BRIGHAM AND WOMEN'S HOSPITAL, INC., priority 2013, published 2016)",
  "key": {"[1]": {"system": "human pluripotent stem cells (hPSCs)", "test": "Quantitative RT-PCR gene expression in CHIR-treated hPSCs", "format": "cell-based", "method": "Total RNA is harvested and isolated from cells using the RNeasy Mini Kit (Qiagen). 1 μg RNA is used for reverse transcription with the M-MLV Reverse Transcriptase system (Promega), or 500 ng RNA is used for High Capacity cDNA Reverse Transcription Kits (Applied Biosystems). RT-PCR reactions can be run in duplicate using cDNA (diluted 1:10), 300 or 400 nM forward and reverse primers, and iQ SYBR Green Supermix (Biorad) or iTAQ SYBR Green Supermix (Biorad). Quantitative RT-PCR is performed using the iQ5 Multicolor Real-Time PCR Detection System (Biorad). Samples can be run with two technical replicates to ensure precision and accuracy. β-actin can be used as a housekeeping gene. […] In parallel, the induction of the mesendoderm state was accompanied by the loss of pluripotency as reflected by a reduction of OCT4 and NANOG mRNA (FIG. 1D). […] As cells migrate through the primitive streak during development, they express SNAIL, downregulate E-cadherin expression, upregulate N-cadherin expression, and undergo an epithelial-mesenchymal transition (“EMT”). […] This was associated with EMT with waves of cells migrating away from the periphery of differentiating colonies between 36-48 hours of differentiation (FIG. 1G), and a switch in cadherin expression from E-cadherin to N-cadherin (FIG. 1H)."}, "hPSC-derived SIX2+ cells": {"system": "hPSC-derived SIX2+ cells", "test": "Response of hPSC-derived SIX2+ cells to canonical Wnt signaling (CHIR)", "format": "cell-based, human", "method": "To test the competence of hPSC-derived SIX2+ cells to respond to canonical Wnt signaling, the Inventors treated cells on day 6 of differentiation with […] CHIR for 24 hours, followed by withdrawal of CHIR. […] Furthermore, hPSC-derived SIX2+ cells explanted into dissociated-reaggregated mouse embryonic kidneys formed organizing clusters of cells that expressed LTL (FIG. 7I). The Inventors therefore concluded that the ability of hPSCderived PAX2+LHX1+ cells to be differentiated into cells expressing multiple markers of kidney CMand that could form tubule like structures in response to Wnt signaling was consistent with the behavior and function of nephrogenic IM cells."}, "[2]": {"system": "human pluripotent stem cells (hPSCs)", "test": "Spontaneous differentiation of CHIR-induced mesendodermal cells after CHIR withdrawal, marker immunocytochemistry", "format": "cell-based", "settings": "day 4", "method": "Mesendoderm differentiation—the media is changed to Advanced RPMI (A-RPMI, Invitrogen) supplemented with 1×L-glutamax and 1× penicillin/streptomycin and either CHIR99021 (CHIR, Stemgent), human Wnt3a (R&D systems), and/or human activin A (R&D systems) at the doses described. Definitive endoderm differentiation—cells are treated with A-RPMI+1×L-glu+1×P/S+5 μM CHIR for 24 hours, then A-RPMI+1×Lglu+1×P/S+100 ng/mL of activin A for 2-3 days. Hepatic differentiation—cells at the definitive endoderm stage are treated with A-RPMI+1×L-glu+1×P/S+1×B27 supplement (Invitrogen)+20 ng/mL BMP-4 (R&D systems)+10 ng/mL FGF2 (Invitrogen) for 5 days, then A-RPMI+1×L-glu+1×P/S+1×B27+10 ng/mL HGF for 5 days, then HCM Hepatocyte Culture Medium (Lonza) supplemented with 20 ng/mL Oncostatin M and 10 ng/mL HGF (Peprotech) for 5 days. Pancreatic differentiation—cells at the definitive endoderm stage are treated with DMEM/F12+2% FBS (Hyclone)+50 ng/mL FGF7 (R&D systems) for 2 days, then high-glucose DMEM (Mediatech)+1% B27+2 μM retinoic acid (Sigma)+0.25 μM KAAD cyclopamine (EMD Millipore)+100 ng/mL recombinant human Noggin (R&D systems) for 4 days, then high-glucose DMEM+1% B27+100 ng/mL Noggin+300 nM indolactam V (Stemgent)+1 μM ALK5 inhibitor II (Axxora) for 4 days. Anterior foregut endoderm differentiation—cells at the definitive endoderm stage are treated with DMEM/F12+1×L-glu+1×B27+200 ng/mL Noggin+10 μM SB431542 (Stemgent) for 3 days. For hindgut endoderm differentiation, cells at the definitive endoderm stage were treated with A-RPMI+1×L-glu+1×P/S+2% FBS+500 ng/mL FGF4 (R&D systems)+5 μM CHIR for 4 days. […] Intermediate mesoderm differentiation—cells are treated with A-RPMI+1×L-glu+1×P/S+5 μM CHIR for 24, 36, or 48 hours, then A-RPMI+1×L-glu+1×P/S+100 ng/mL FGF2+1 μM retinoic acid for 2-3 days. Cap mesenchyme differentiation—cells were treated with A-RPMI+13 L-glu+13 P/S+[…] CHIR for 36 hours, then A-RPMI+13 L-glu+13 P/S+100 ng/ml FGF2+1 mM retinoic acid for 36-42 hours, then A-RPMI+13L-glu+13P/S+100 ng/ml FGF-9 (R&D Systems)+10 ng/ml activin A for 3 days.\nFor immunofluorescence studies, cultures are washed once with PBS (Invitrogen) and fixed in 4% paraformaldehyde for 15 min at room temperature (RT). Fixed cells are then washed three times in PBS and incubated in blocking buffer (0.3% Triton X-100 (Fisher Scientific) and 5% normal donkey serum (EMD Millipore) in PBS) for 1 hour at RT.\nThe cells are then incubated with primary antibody overnight at 4° C. or for 2 hours at RT in antibody dilution buffer (0.3% Triton X-100 and 1% BSA (Roche) in PBS). Cells are then washed three times in PBS and incubated with Alexa Fluor 488-, 555-, or 647-conjugated secondary antibodies (1:500) (Molecular Probes) in antibody dilution buffer for 1 hour at RT. For immunostaining with Biotinylated Lotus Tetragonolobus Lectin (LTL, Vector Labs), a Streptavidin/Biotin Blocking Kit (Vector Labs) and Alexa Fluor 488- or 647-conjugated Streptavidin (Molecular Probes) were used according to manufacturer's instructions.\nNuclei can be counterstained with DAPI (Sigma). […] Immunofluorescence is visualized using an inverted fluorescence microscope (Nikon Eclipse Ti, Tokyo, Japan). Quantification is performed by counting a minimum of five random fields at 10× magnification.\nTo determine whether treatment with CHIR alone is sufficient to induce differentiation towards IM, the Inventors investigated the intrinsic multipotency of CHIR-induced mesendodermal cells by withdrawing CHIR from the culture media after either 24 or 48 hours of induction and allowing the cells to differentiate for another 3-4 days (FIG. 2A)."}, "[3]": {"settings": "5 mM CHIR for 24 hours on day 6, read on day 8, compared with cells not treated with CHIR"}, "[4]": {"settings": "CHIR pulse 24 hours then withdrawal"}},
  "data": [
    {"smiles": "Cc1c[nH]c(-c2cnc(NCCNc3ccc(C#N)cn3)nc2-c2ccc(Cl)cc2Cl)n1", "note": "[CHIR99021]", "values": [
      {"measurement": "BMP-4 transcript expression", "setting": "[1]; CHIR for 24 or 48 hours, day 4, compared to DMSO-treated controls", "result": "significantly upregulated"},
      {"measurement": "OCT4 and NANOG mRNA", "setting": "[1]; CHIR time course", "result": "reduction"},
      {"measurement": "SNAI1 expression", "setting": "[1]; as early as 24 hours after treatment", "result": "upregulation"},
      {"measurement": "expression of primitive streak genes (BRACHY, MIXL1, EOMES, FOXA2, GSC)", "setting": "[1]; within 24 hours of treatment, peak 36-48 hours, decreased by 72 hours", "result": "rapidly upregulated"},
      {"measurement": "SIX2 expression", "setting": "hPSC-derived SIX2+ cells; [3]", "result": "downregulation of SIX2 expression"},
      {"measurement": "expression of proximal tubule marker LTL", "setting": "hPSC-derived SIX2+ cells; [3]", "result": "increased expression"},
      {"measurement": "cell morphology", "setting": "hPSC-derived SIX2+ cells; within 24 hours of 5 mM CHIR treatment", "result": "formation of tubular-like structures"},
      {"measurement": "FOXF1+ lateral plate mesoderm cells", "setting": "[2]; [4]", "result": "approximately 40%"},
      {"measurement": "cells expressing pluripotency marker OCT4", "setting": "[2]; [4]", "result": "30-40%"},
      {"measurement": "appearance of OCT4+ cells", "setting": "[2]; CHIR treatment 48 hours", "result": "eliminated the appearance of OCT4+ cells"},
      {"measurement": "cells staining positive for FOXF1", "setting": "[2]; CHIR treatment 48 hours", "result": "greater than 80%"},
      {"measurement": "cells expressing PAX6", "setting": "[2]; CHIR treatment alone", "result": "< 1", "unit": "%"},
      {"measurement": "cells expressing SOX17", "setting": "[2]; CHIR treatment alone", "result": "< 1", "unit": "%"},
      {"measurement": "cells with protein expression of IM marker PAX2", "setting": "[2]; CHIR treatment alone", "result": "< 1", "unit": "%"},
      {"measurement": "cells with protein expression of paraxial mesoderm marker TBX6", "setting": "[2]; CHIR treatment alone", "result": "< 10", "unit": "%"}
    ]}
  ]
}
